# From patent publication US8735397B2, “Method for treating schizophrenia and related diseases” (Vanderbilt University, priority 2010, dated 2014)
# Entries after “also recorded” stand apart in the source; their conditions may differ. Where a name gives a salt, the structure may show the parent alone.
# Assays:
# [1] = test system: PCP-induced NOR deficits in sub-chronic PCP treated rats; test: Novel object recognition (NOR) test after subchronic PCP treatment; format: in vivo, Female Long-Evans rats; details: for Acquisition (sec) Left, exploration time / Acquisition (sec) Right, exploration time / Retention (sec) Familiar, exploration time / Retention (sec) Novel, exploration time: mean±SEM; for Effective dose for reversing PCP-induced NOR deficits / Sub-effective dose in PCP-induced NOR deficit: single agent, acute administration after subchronic PCP
# Description: Female Long-Evans rats received vehicle or PCP (2 mg/kg, i.p.) twice daily for 7 days, followed by a 7-day washout period (n=6-9/group). Phencyclidine (PCP) which is known to induce schizophrenia-like symptoms in human normal subjects and to exacerbate symptoms in patients with schizophrenia was dissolved in distilled water and administered in a volume of 1 ml/kg.
# On the test day, in the first set of experiments, lurasidone HCl (0.03 and 0.1 mg/kg; produced by Dainippon Sumitomo Pharma Co., Ltd.), clozapine (0.3 mg/kg), LY379268 (1 mg/kg; Tocris Bioscience) alone, or haloperidol (0.1 mg/kg), pimavanserin (3 mg/kg), lurasidone HCl (0.03 mg/kg), clozapine (0.1 mg/kg) in combination with LY379268 (1 mg/kg) were administered intraperitoneally in a volume of 1 ml/kg, 30 min before the novel object recognition (NOR) test. In the second set of experiments, LY404039 (1 mg/kg; produced by Dainippon Sumitomo Pharma Co., Ltd.) alone was orally administered in a volume of 4 ml/kg 60 min before the novel object recognition (NOR) test. For combination with lurasidone HCl, LY404039 (1 mg/kg, p.o.) and lurasidone HCl (0.03 mg/kg, i.p.) were administered 60 min and 30 min before the novel object recognition (NOR) test, respectively. In the third set of experiments, BINA (30 mg/kg; produced by Dainippon Sumitomo Pharma Co., Ltd.) alone or BINA (30 mg/kg) in combination with lurasidone HCl (0.03 mg/kg) was administered intraperitoneally in a volume of 1 ml/kg 30 min before the novel object recognition (NOR) test.
# Haloperidol, pimavanserin, and LY404039 were dissolved in distilled water. Lurasidone HCl was dissolved 0.5% methylcellulose, 0.2% Tween 80. Clozapine was dissolved in a small amount of 0.1 M phosphoric acid, and the pH was adjusted to 6 to 7 with 0.1 N NaOH. LY379268 was dissolved in saline. BINA was dissolved in 10% Tween 80, 10% 1N NaOH, and the pH was adjusted to 7 with 1N HCl.
# The object recognition test was performed in an open field comprising a square box made of Plexiglas (52/52/31 cm) placed 37 cm above the floor on an immoveable stand. The floor of the box was white with black gridlines forming nine identical squares on it. All other walls were black. A video camera connected to a video recorder and monitor was positioned above the box. The objects used for the test consisting of four heavy pyramidal structures made of metal or Perspex that could not be displaced by the animals. Care was taken to ensure that these objects were not of any natural significance to the rats.
# Testing was carried out according to a previously validated method (Grayson et al., Behay. Brain Res. 2007 184, 31-38; Snigdha et al., J. Pharmacol. Exp. Ther., 2010 332 (2), 622-31). The rats were familiarized to the test environment and NOR arena before the test day. Habituation consisting of placing the subjects in the empty NOR arena for 1 h, on the day before the test day (day 1). Before behavioral testing on day 2, rats were given a further 3-min habituation. For each experimental trial after the 3-min habituation period, the rats were given two 3-min trials (T1 and T2), separated by a 1-min intertrial interval in the home cage during which the objects were changed and the arena was cleaned. In Trial 1 (T1) or the acquisition trial, the animals were allowed to explore two identical objects (A1 and A2) for 3 min. In the second trial (T2) or the retention trial, the animals explored a familiar object (A) from T1 and a novel object (B) for 3 min. The familiar object presented during T2 was a duplicate of the object presented in T1 to avoid any olfactory trails. Each rat was tested three or four times in the NOR paradigm. To reduce carryover effects, a 7-day washout period was given between each of the test sessions. The criterion for continuing to test the rats was based on mean total exploration time in the acquisition or retention phase 5 seconds. […] This happened rarely and not enough to affect the ability to use the remaining animals for analysis. […]
# [2] = target: T1, serotonin 5-HT1A receptor (Homo sapiens, UniProt P08908); details: cited from earlier work
# T1 sequence (P08908 1-422): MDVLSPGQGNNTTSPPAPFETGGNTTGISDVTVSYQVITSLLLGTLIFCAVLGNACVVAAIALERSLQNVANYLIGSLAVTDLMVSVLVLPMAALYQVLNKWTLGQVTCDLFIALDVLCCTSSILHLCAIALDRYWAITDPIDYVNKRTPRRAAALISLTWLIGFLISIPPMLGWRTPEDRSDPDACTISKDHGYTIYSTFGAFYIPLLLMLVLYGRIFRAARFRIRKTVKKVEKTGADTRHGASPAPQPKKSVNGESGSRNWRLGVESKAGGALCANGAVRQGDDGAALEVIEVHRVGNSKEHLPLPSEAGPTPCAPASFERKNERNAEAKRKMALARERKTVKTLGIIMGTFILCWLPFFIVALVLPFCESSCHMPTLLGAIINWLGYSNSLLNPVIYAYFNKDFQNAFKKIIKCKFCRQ
# serotonin 5-HT7 receptor = serotonin 5-HT7 receptor (Homo sapiens, UniProt P34969); details: cited from earlier work
# serotonin 5-HT7 receptor, sequence (P34969 whole entry): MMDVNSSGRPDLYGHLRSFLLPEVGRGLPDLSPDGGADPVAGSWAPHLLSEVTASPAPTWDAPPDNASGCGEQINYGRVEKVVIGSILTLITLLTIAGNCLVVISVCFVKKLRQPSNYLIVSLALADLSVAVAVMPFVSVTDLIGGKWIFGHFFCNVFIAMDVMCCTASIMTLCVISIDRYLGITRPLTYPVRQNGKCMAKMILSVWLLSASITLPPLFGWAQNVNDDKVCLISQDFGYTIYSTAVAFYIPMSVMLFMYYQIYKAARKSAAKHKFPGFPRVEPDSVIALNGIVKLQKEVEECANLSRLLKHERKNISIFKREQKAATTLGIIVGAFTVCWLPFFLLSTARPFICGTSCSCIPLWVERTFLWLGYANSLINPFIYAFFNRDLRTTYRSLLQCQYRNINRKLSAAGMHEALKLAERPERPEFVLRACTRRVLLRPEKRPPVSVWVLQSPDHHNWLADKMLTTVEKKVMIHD
# [3] = target: T2, noradrenaline α2C receptor (Homo sapiens, UniProt P18825); details: cited from earlier work
# T2 sequence (P18825 1-462): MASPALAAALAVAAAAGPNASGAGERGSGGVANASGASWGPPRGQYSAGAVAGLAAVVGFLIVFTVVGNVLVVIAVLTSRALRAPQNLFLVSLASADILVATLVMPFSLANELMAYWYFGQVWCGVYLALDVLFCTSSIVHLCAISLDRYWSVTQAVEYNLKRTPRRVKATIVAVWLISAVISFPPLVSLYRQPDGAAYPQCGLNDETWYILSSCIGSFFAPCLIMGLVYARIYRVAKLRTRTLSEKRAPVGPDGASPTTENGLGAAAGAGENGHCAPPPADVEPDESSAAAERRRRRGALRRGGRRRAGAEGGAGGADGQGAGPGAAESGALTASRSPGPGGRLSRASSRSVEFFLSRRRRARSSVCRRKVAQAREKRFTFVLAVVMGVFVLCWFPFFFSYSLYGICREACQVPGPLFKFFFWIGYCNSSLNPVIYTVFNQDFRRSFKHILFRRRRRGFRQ
# histamine H1 receptor = histamine H1 receptor (Homo sapiens, UniProt P35367); details: cited from earlier work
# histamine H1 receptor, sequence (P35367 whole entry): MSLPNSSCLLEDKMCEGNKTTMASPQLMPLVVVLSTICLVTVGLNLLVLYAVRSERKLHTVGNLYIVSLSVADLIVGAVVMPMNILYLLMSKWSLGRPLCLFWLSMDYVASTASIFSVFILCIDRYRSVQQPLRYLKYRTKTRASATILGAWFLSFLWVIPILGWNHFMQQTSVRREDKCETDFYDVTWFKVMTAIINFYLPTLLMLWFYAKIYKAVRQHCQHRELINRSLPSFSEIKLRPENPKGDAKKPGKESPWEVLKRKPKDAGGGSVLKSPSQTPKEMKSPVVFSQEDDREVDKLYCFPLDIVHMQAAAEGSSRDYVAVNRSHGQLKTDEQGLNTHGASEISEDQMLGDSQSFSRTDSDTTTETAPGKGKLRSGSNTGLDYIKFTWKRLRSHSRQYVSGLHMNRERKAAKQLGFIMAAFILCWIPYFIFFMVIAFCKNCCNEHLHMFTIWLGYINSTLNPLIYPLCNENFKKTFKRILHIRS
# dopamine D2 receptor = dopamine D2 receptor (Homo sapiens, UniProt P14416); details: cited from earlier work
# dopamine D2 receptor, sequence (P14416 whole entry): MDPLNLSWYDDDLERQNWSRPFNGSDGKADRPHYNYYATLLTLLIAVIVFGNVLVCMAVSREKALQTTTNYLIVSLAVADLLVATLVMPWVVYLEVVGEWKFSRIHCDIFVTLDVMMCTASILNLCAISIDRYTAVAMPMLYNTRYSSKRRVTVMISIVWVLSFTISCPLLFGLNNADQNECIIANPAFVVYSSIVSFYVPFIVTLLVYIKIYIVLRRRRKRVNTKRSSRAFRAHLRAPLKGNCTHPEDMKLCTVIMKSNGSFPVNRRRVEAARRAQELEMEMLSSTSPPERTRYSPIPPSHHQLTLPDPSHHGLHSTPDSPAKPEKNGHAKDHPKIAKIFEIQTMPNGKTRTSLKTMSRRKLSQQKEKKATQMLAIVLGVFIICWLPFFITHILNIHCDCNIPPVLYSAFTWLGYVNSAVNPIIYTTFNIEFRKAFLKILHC
# muscarinic M1 receptor = target: T3, muscarinic M1 receptor (Homo sapiens, UniProt P11229); details: cited from earlier work
# T3 sequence (P11229 1-460): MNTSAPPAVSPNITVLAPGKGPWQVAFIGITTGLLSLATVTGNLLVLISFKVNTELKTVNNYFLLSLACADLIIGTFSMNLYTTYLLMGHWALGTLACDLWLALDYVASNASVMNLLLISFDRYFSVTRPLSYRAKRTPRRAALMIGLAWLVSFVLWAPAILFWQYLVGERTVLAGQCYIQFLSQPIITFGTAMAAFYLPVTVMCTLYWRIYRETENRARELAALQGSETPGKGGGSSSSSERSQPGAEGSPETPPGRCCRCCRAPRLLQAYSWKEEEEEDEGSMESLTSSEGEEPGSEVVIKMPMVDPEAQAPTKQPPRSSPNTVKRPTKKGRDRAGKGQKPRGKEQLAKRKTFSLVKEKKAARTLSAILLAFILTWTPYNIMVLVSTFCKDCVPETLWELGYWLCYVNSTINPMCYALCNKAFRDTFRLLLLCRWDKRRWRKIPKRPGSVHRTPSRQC
# [4] = target: serotonin 5-HT2A receptor (Homo sapiens, UniProt P28223); details: cited from earlier work
# serotonin 5-HT2A receptor, sequence (P28223 whole entry): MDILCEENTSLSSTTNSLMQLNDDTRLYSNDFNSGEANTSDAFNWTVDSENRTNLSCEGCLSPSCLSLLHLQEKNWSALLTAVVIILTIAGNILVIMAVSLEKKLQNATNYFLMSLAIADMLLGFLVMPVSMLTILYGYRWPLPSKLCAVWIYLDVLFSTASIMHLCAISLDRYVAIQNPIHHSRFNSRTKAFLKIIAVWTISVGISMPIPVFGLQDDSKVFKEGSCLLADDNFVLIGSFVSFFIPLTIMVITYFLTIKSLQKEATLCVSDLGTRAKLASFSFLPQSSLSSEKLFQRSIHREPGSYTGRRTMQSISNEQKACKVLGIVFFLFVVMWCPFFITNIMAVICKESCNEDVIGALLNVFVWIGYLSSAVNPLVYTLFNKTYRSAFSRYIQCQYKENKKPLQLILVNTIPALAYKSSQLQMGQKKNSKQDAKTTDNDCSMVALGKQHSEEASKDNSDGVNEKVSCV
# [5] = PCP + BINA 30 mg/kg i.p. 30 min before NOR, n=7 to 9
# [6] = PCP + clozapine 0.1 mg/kg, n=6 to 8
# [7] = PCP + clozapine 0.3 mg/kg i.p. 30 min before NOR, n=6 to 8
# [8] = PCP + LY379268 1 mg/kg i.p. 30 min before NOR, n=6 to 8
# [9] = PCP + LY404039 1 mg/kg p.o. 60 min before NOR, n=7 to 8
# [10] = PCP + lurasidone HCl 0.03 mg/kg i.p. 30 min before NOR, n=7 to 8
# [11] = PCP + lurasidone HCl 0.1 mg/kg i.p. 30 min before NOR, n=7 to 8
compound,measurement,setting,value
"Cc1c(OCc2cccc(-c3ccc(C(=O)O)cc3)c2)cc2c(c1C)C(=O)C(C1CCCC1)C2 (stereo not shown) [BINA, 3′-(2-Cyclopentyl-6,7-dimethyl-1-oxoindan-5-yloxy-methyl)biphenyl-4-carboxylic acid]",Effect on PCP-induced NOR deficits,[1]; BINA alone 30 mg/kg i.p.,did not attenuate the PCP-induced NOR deficits; also recorded: did not improve the PCP-induced deficit in NOR
same,"Acquisition (sec) Left, exploration time",[1]; [5],9.8 ± 1.5 s
same,"Acquisition (sec) Right, exploration time",[1]; [5],10.7 ± 2.0 s
same,"Retention (sec) Familiar, exploration time",[1]; [5],6.0 ± 1.1 s
same,"Retention (sec) Novel, exploration time",[1]; [5],7.9 ± 1.0 s
CN1CCN(C2=Nc3cc(Cl)ccc3Nc3ccccc32)CC1 [Clozapine],"Acquisition (sec) Left, exploration time",[1]; [6],12.7 ± 3.5 s
same,"Acquisition (sec) Right, exploration time",[1]; [6],10.6 ± 2.1 s
same,"Retention (sec) Familiar, exploration time",[1]; [6],9.1 ± 1.9 s
same,"Retention (sec) Novel, exploration time",[1]; [6],11.0 ± 2.8 s
same,"Acquisition (sec) Left, exploration time",[1]; [7],13.1 ± 2.9 s
same,"Acquisition (sec) Right, exploration time",[1]; [7],11.4 ± 2.5 s
same,"Retention (sec) Familiar, exploration time",[1]; [7],7.3 ± 1.7 s
same,"Retention (sec) Novel, exploration time",[1]; [7],16.3 ± 2.8 s
same,Effective dose for reversing PCP-induced NOR deficits,[1],0.3 mg/kg
same,Sub-effective dose in PCP-induced NOR deficit,[1],0.1 mg/kg
"N[C@@]1(C(=O)O)CO[C@H]2[C@H](C(=O)O)[C@H]21 [LY379268, (1R,4R,5S,6R)-4-Amino-2-oxabicyclo[3.1.0]hexane-4,6-dicarboxylic acid]",Effect on PCP-induced NOR deficits,[1]; LY379268 alone 1 mg/kg i.p.,did not attenuate the PCP-induced NOR deficits; also recorded: did not attenuate the PCP-induced deficit in NOR
same,"Acquisition (sec) Left, exploration time",[1]; [8],12.4 ± 2.6 s
same,"Acquisition (sec) Right, exploration time",[1]; [8],11.0 ± 4.2 s
same,"Retention (sec) Familiar, exploration time",[1]; [8],8.3 ± 1.5 s
same,"Retention (sec) Novel, exploration time",[1]; [8],9.7 ± 2.2 s
"N[C@@]1(C(=O)O)CS(=O)(=O)[C@H]2[C@H](C(=O)O)[C@H]21 [LY404039, (−)-(1R,4S,5S,6S)-4-Amino-2-thiabicyclo[3.1.0]hexane-4,6-dicarboxylic acid S,S-dioxide]",Effect on PCP-induced NOR deficits,[1]; LY404039 alone 1 mg/kg p.o.,did not attenuate the PCP-induced NOR deficits; also recorded: did not improve the PCP-induced deficit in NOR
same,"Acquisition (sec) Left, exploration time",[1]; [9],9.3 ± 0.8 s
same,"Acquisition (sec) Right, exploration time",[1]; [9],8.4 ± 0.9 s
same,"Retention (sec) Familiar, exploration time",[1]; [9],5.5 ± 1.1 s
same,"Retention (sec) Novel, exploration time",[1]; [9],7.3 ± 0.8 s
O=C1[C@@H]2[C@H]3CC[C@H](C3)[C@@H]2C(=O)N1C[C@@H]1CCCC[C@H]1CN1CCN(c2nsc3ccccc23)CC1 [Lurasidone HCl],"Acquisition (sec) Left, exploration time",[1]; [10],11.4 ± 3.1 s
same,"Acquisition (sec) Right, exploration time",[1]; [10],8.3 ± 1.8 s
same,"Retention (sec) Familiar, exploration time",[1]; [10],7.6 ± 2.3 s
same,"Retention (sec) Novel, exploration time",[1]; [10],8.9 ± 1.7 s
same,"Acquisition (sec) Left, exploration time",[1]; [11],10.9 ± 1.3 s
same,"Acquisition (sec) Right, exploration time",[1]; [11],10.9 ± 0.8 s
same,"Retention (sec) Familiar, exploration time",[1]; [11],4.6 ± 1.0 s
same,"Retention (sec) Novel, exploration time",[1]; [11],11.4 ± 2.2 s
same,Effective dose for reversing PCP-induced NOR deficits,[1],0.1 mg/kg
"O=C1[C@@H]2[C@H]3CC[C@H](C3)[C@@H]2C(=O)N1C[C@@H]1CCCC[C@H]1CN1CCN(c2nsc3ccccc23)CC1 [Lurasidone, (3aR,4S,7R,7aS)-2-{(1R,2R)-2-[4-(1,2-benzisothiazol-3-yl)piperazin-1-ylmethyl]cyclo-hexylmethyl}hexahydro-4,7-methano-2H-isoindole-1,3-dione]",Affinity for serotonin 5-HT1A receptors,[2],high affinity
same,Affinity for serotonin 5-HT7 receptors,serotonin 5-HT7 receptor,high affinity
same,Affinity for noradrenaline α2C receptors,[3],high affinity
same,Effective dose for reversing PCP-induced NOR deficits,[1],0.1 mg/kg
same,Sub-effective dose in PCP-induced NOR deficit,[1],0.03 mg/kg
same,Affinity for histamine H1 receptors,histamine H1 receptor,minimal to no affinity
same,Affinity for dopamine D2 receptors,dopamine D2 receptor,high affinity
same,Affinity for muscarinic M1 receptors,muscarinic M1 receptor,minimal to no affinity
same,Affinity for serotonin 5-HT2A receptors,[4],high affinity
